From patent US10273313B2, “Multimeric mannosides, a process for preparing the same and their uses as a drug” (CENTRE NATIONAL DE LA RECHERCHE SCIENTIFIQUE, priority 2012, dated 2019)
Values after ≈ are worked out from the molar mass of the structure shown. Like-named read-outs stand apart in the source and are kept apart here.

Legend:
[1] = target: T1, monovalent lectin domain of FimH (Escherichia coli, UniProt P08191); format: binding; conditions: for Kd / Molar ratio n meas / ΔG° / ΔH° / ΔS°: direct titration; for Kd: read-out: Kd
T1 construct: with the monovalent lectin domain of FimH were measured using isothermal calorimetry (ITC)
T1 sequence (P08191 22-179): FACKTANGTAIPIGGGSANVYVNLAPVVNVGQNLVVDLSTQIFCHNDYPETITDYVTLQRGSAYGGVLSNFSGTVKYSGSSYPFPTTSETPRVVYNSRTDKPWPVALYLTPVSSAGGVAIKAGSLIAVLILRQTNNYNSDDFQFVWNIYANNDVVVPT

bladder cell line 5637 = experiment: Anti-adhesives for bacterial bladder cell binding; format: cell-based; conditions: ten-fold dilution series
Description: The anti-adhesive capacities of the HM-derivatized cyclodextrins 1-4 were tested in vitro on the bladder cell line 5637, in a procedure analogous as previously described (Wellens, A. et al., PLoS ONE 3: e2040 (2008)). The CD conjugates 1-4 were diluted in a ten-fold series. The minimum inhibitory concentrations (MIC) indicate the concentrations of sugars at which we see some inhibition of binding of FimH to the bladder cells, they do however not indicate complete inhibition. MIC values for the CD-conjugates 1-4 followed a similar trend as the inhibitory concentrations recorded in HIA.
The anti-adhesive capacities of the n-heptyl α-D-mannoside-derivatized cyclodextrins 1-4 were tested in vitro on the bladder cell line 5637, in a procedure analogous to as described in (Wellens, A. et al., PLoS ONE 3: e2040 (2008)). The ligands have been diluted 10-fold and this is also the resolution limit of these tests.

[2] = tested on: AIEC LF82 bacteria adhesion to T84 intestinal epithelial cells; experiment: Adhesion assay on T84 cells, pre-, co- and post-incubation protocols (Example 21.2); format: cell-based, Escherichia coli
Description: (§1) E. coli strain LF82 was isolated from a chronic ileal lesion of a patient with Crohn's disease (CD). Bacteria were grown routinely in Luria-Bertani (LB) broth overnight at 37° C. Intestinal epithelial cells T84 derived from colonic adenocarcinoma were maintained in an atmosphere containing 5% CO2 at 37° C. in DMEM/F12 (50/50) medium supplemented with 10% (v/v) heat-inactivated fetal calf serum (FCS), 1% L-glutamine, 100 000 U·l^−1 penicillin, 100 mg·l^−1 streptomycin, 25 μg·l^−1 amphotericin B.
T84 were seeded in 48-well plates at a concentration of 1.5×10^5 cells per well and grown for 48 h. AIEC LF82 bacteria were incubated 1 h with each mannoside prior the cell infection (pre-incubation protocol) or they were added simultaneously onto the cells (co-incubation protocol) in complete medium without antibiotics, containing heat inactivated fetal calf serum (FCS). Heptyl-mannose or compound 2 (example 1) were tested at a dose of 100; 10; 1 or 0.1 μM. D-D-mannose was tested at a dose of 10 000; 1 000; 100 or 10 μM and compound 1 (example 2bis) was tested at a concentration of 500; 100; 10 or 1 μM. Cells were infected with AIEC LF82 bacteria at a multiplicity of infection (MOI) of 10 bacteria per cell for 3 h at 37° C. For the post-incubation protocol, mannosides were incubated with cells for 3 h after bacterial infection. A washing step was realized before this post-incubation to eliminate non-adherent bacteria. Monolayers were washed in phosphate-buffered saline (PBS; pH 7.2) and cells were then lysed with 1% Triton X-100 in deionized water. Samples were diluted and plated onto Luria Bertani agar plates to determine the number of colony-forming units (CFU) recovered from the lysed monolayers. Results were expressed as percentages of residual adhesion, considering adhesion level of AIEC LF82 without mannoside treatment as 100%.

[3] = tested on: type-1 piliated clinical E. coli isolate UTI89; experiment: Haemagglutination inhibition assay (HIA), guinea pig erythrocytes; format: cell-based, Escherichia coli; conditions: read-out: Minimal inhibitory concentration (MIC) on haemagglutination
Description: Haemagglutination is observed as the red blood cells being held in suspension through the formation of a space-filling cross-linked network with the fimbriated bacteria.
The UIT89 clinical isolate was grown statically 37° C. for 48 hours in LB medium and analysed for haemagglutination of guinea pig red blood cells. Both bacteria and red blood cells (RBCs) were washed 3 times in ice-cold PBS (17 mM K/NaH2PO4, 150 mM NaCl). PBS was used for all dilutions. 96-well round-bottom microtiter plates were used for the dilutions. The titer for agglutination was determined in a 2-fold dilution series in PBS of the bacteria in a volume of 25 μL. Well 1 is a negative control without bacteria but 25 μL PBS. 25 μL PBS and 50 μL 5% RBCs were added to a final 100 μL volume. Upon 1 hour at 4° C., the titer was determined as the lowest concentration of bacteria that led to haemagglutination.
A bacterial concentration of twice the determined haemagglutination titer was kept constant in the haemagglutination inhibition assays. First, a 2-fold dilution series of the inhibitory compounds was performed in 25 μL PBS. Instead, in well 1 only 25 μL PBS was added as a negative control. 25 μL of the bacterial solution and 50 μl of 5% red blood cells were added to reach a final volume of 100 μL.

[4] = tested on: AIEC LF82 strain adhesion to T84 intestinal epithelial cells; experiment: Adhesion assay on T84 cells, cells incubated 1 h with mannoside prior infection (Example 21.1); format: cell-based, Escherichia coli
Description: as §1
T84 cells were seeded in 48-well tissue culture plates with 1.5×10^5 cells per well and grown for 48 h. Cells were incubated 1 h prior infection with each mannoside at a final concentration of 100; 10; 1 or 0.1 μM in complete medium without antibiotics, containing heat inactivated fetal calf serum (FCS) and were next infected with AIEC LF82 strain at a multiplicity of infection (MOI) of 10 bacteria per cell. After a 3 h incubation period at 37° C., the monolayers were washed in phosphate-buffered saline (PBS; pH 7.2). The epithelial cells were then lysed with 1% Triton X-100 in deionized water. Samples were diluted and plated onto Luria Bertani agar plates to determine the number of cfu recovered from the lysed monolayers.
Results were expressed in percentage of residual adhesion, considering adhesion level of AIEC LF82 without mannoside treatment as 100%.

[5] = tested on: E. coli strain UTI89 in the bladder of C3H/HeN mice; experiment: In vivo inhibition in the murine cystitis model (instillation with UTI89)
Description: In vivo inhibition was evaluated by instilling 1-4 together with the UTI89 strain via a catheter in the bladder of C3H/HeN mice. […] A group of ten animals was used for each concentration of antagonists. […] The animals were sacrificed at a 6 h post infection time.
A murine model of urinary tract infection was used to test the ability of the compounds to inhibit the colonization of UTI89 in the bladder [Hung C. S.; Dodson, K. W., Hultgren S. J. Nat. Protoc. 2009, 4, 1230-1243 and Wellens A.; Garofalo C.; Nguyen H.; Van Gerven N.; Slättegård R.; Hernalsteens, J.-P.; Wyns, L.; Oscarson, S.; De Greve H.; Hultgren S. J.; Bouckaert, J. PLoS ONE 2008, 3, e2040]. The solution with high concentration of compounds was added to the resuspension of UTI89 before given to the mice. The eight-week old Female C3H/HeN mice (Harlan, Horst, The Netherlands) were anesthetized and infected via transurethral catheterization of 10^7 CFU UTI89 in solution in PBS, or in PBS with the compound in the mentioned concentration. The mice were sacrificed at 24 hours post infection and the bladders were harvested, homogenized and resuspended in PBS. The serial dilutions were spot on LB medium agar plates. The bacterial load was determined by counting the CFU recovered from the bladder. The animal experiments were approved by the Ethical Committer for Animal Experiments of Vrije Universiteit Brussel and complied with all relevant national legislation and institutional policies. The Mann-Whitney test was applied for the comparison of the data obtained from the untreated group and inhibition group in GraphPad Prism version 5.1 and two tailed P value were shown (GraphPad software).
A limited number of papers described the in vivo efficiency of anti-adhesive mannosides to treat UTIs.

[6] = tested on: AIEC LF82 bacteria in colonic loops of CEABAC10 mice expressing human CEACAM6; experiment: Adhesion assay in colonic loops of CEABAC10 mice; format: in vivo; conditions: dose of 0.1 μmol, 4 h incubation
Description: E. coli strain LF82 was isolated from a chronic ileal lesion of a patient with Crohn's disease (CD). Bacteria were grown routinely in Luria-Bertani (LB) broth overnight at 37° C.
The transgenic mouse model CEABAC10 expressing the human CEACAM6 protein is available in the UMR Inserm/Université d'Auvergne 1071 led by Professor Arlette Darfeuille-Michaud at Clermont-Ferrand. This model is particularly suitable to reproduce the abnormal colonization by AIEC bacteria through the interaction with CEACAM6 molecules that were observed abnormally expressed in the ileal mucosa of Crohn's disease patients.
Three colonic loops were realized in anesthetized CEABAC10 mice. A volume of 100 μl of a bacterial suspension containing 6×10^6 bacteria/mL with or without inhibitory compound was injected into the loops (here, compound 2, example 1) or heptyl-mannose at a concentration of 100 μM). After an incubation period of 4 h, mice were euthanized and each loop was longitudinally opened, extensively washed and homogenized to numerate adherent LF82 bacteria. Bacterial adhesion was expressed as percentages of residual adhesion (100% corresponds to the adhesion in absence of any compound).

[7] = excluding spiky heat signals (2)

SMILES: OC[C@H]1O[C@H](OCCCCCCCOCc2cn(C[C@H]3O[C@@H]4O[C@H]5[C@H](O)[C@@H](O)[C@@H](O[C@H]6[C@H](O)[C@@H](O)[C@@H](O[C@H]7[C@H](O)[C@@H](O)[C@@H](O[C@H]8[C@H](O)[C@@H](O)[C@@H](O[C@H]9[C@H](O)[C@@H](O)[C@@H](O[C@H]%10[C@H](O)[C@@H](O)[C@@H](O[C@H]3[C@H](O)[C@H]4O)O[C@@H]%10CO)O[C@@H]9CO)O[C@@H]8CO)O[C@@H]7CO)O[C@@H]6CO)O[C@@H]5CO)nn2)[C@@H](O)[C@@H](O)[C@@H]1O [Compound 1]
- Affinity of FimH for the ligand (in words) ([1]; ITC): micromolar range
- Kd ([1]; data processed to exclude spiky heat signals (2)): 625 nM
- Kd ([1]; data processed to include the whole binding event (1)): 1640 nM
- Molar ratio n meas [1, 7]: 0.36
- ΔG° [1, 7]: -8.4 kcal/mol
- ΔH° [1, 7]: -5.6 kcal/mol
- ΔS° [1, 7]: 9.7 cal/mol/deg
- Molar ratio n meas ([1]; whole binding event (1)): 0.35
- ΔG° ([1]; whole binding event (1)): -7.8 kcal/mol
- ΔH° ([1]; whole binding event (1)): -7.2 kcal/mol
- ΔS° ([1]; whole binding event (1)): 2.2 cal/mol/deg
- MIC, anti-adhesive potency on bladder cell line 5637 (bladder cell line 5637): >400 µM
- Bacteria adherent to intestinal epithelial cells eliminated ([2]; post-incubation, 500 μM): ≤ 40%
- Concentration leading to decreased adhesion levels of at least 50% ([2]; pre-incubation assay): 500 µM
- MIC ([3]; UTI89 1.2 10^9 CFU/ml): >200 µM
- MIC ([3]; UTI89 1.4 10^8 CFU/ml): 100 µM (≈ 149 µg/mL)
- MIC ([3]; UTI89 7 10^7 CFU/ml): 63 µM (≈ 94 µg/mL)
- Concentration reaching around 75% of binding inhibition (25% line) [4]: 500 µM
- Inhibition efficiency at decreased concentration ([5]; 0.1 mM): important drop in the inhibition efficiency
- Reduction of the level of infection ([5]; instillation of 1 mM with UTI89): 10 fold

SMILES: CCCCCCCO[C@H]1O[C@H](CO)[C@@H](O)[C@H](O)[C@@H]1O [heptyl-mannoside, Heptyl α-D-mannoside, reference compound]
- Bacterial adhesion in colonic loops compared with no inhibitor [6]: did not decrease significantly
